Test results as given in patent US20250362286A1, “SCREENING MODELS AND METHODS OF CANCER TREATMENT” (The Regents of the University of California, priority 2022, published 2025).

How the values were obtained:
Type in all cases: cell-based
MDA-MB-231s = test: CD24 mRNA expression in 2D (differentiation screening); conditions: 200 μM, 48h, FCthreshold=2.0
Protocol: FIG. 3H depicts relative CD24 mRNA expression. CD24 expression was an early indicator of response to ISX9 in 2D across several TNBC cell lines. Treatment screening of several different TNBC cell lines with ISX9 in 2D for 48h yielded four responders, as determined by CD24 mRNA expression (FIG. 3H).
These analogs were screened for their potential to differentiate MDA-MB-231s, yielding at least one new hit, CR-1 (˜98% similarity), which induced a ˜6-fold upregulation of CD24 at a concentration of 200 μM at 48h in 2D (FIG. 6).

MDAs [1] = test: invasion distances of MDAs in HD Col1 treated with GSIs; conditions: HD Col1, vs vehicle (0.1% DMSO)
Text: Therefore, this example assessed what effect GSIs would have on MDAs in HD Col1. […] FIG. 3C depicts invasion distances of MDAs in HD Col1 treated with vehicle (0.1% DMSO) or GSIs DAPT and MK0752.

CSCs = test: phenotypic effects in CSCs (MOA controls); conditions: compared to ISX9 (data not shown)
Text: (§1) Therefore, to begin to characterize the MOA of ISX9 in CSCs, it was first determined whether ISX9 treatment of CSCs triggered Ca^2+ signaling. MDAs were transduced to express the genetically encoded Ca^2+ sensor GCamp6f and treated with vehicle, ionomycin (positive control), or ISX9 (data not shown). […] FIG. 5 depicts Ca^2+ response of MDAs to ISX9 treatment. Scale bar=250 μm.

MDA-MB-231 cells = test: western blot of acetylation of histones H3 and H4; conditions: 2D- and 3D-treated cells, 24 hours
Text: Also identified was the fact that a similar increase in acetylation was found in patient-derived organoid models. […] Acetylation and deactylation of histones H3 and H4 are typically orchestrated by Histone Acetyltransferases (HATs), including the several HAT subfamilies, as well as HDACs (see, e.g., Marmorstein, R. et al. Cold Spring Harb. Perspect. Biol. 6, a018762 (2014)). Not wishing to be bound by any particular theory, Isx9 may bind directly to HATs and/or HDACs in order to activate histone acetylation and drive induction of MET and/or CSC differentiation.

MDAs [2] = test: Ca2+ signaling with genetically encoded Ca2+ sensor GCamp6f; conditions: GCamp6f-expressing MDAs (data not shown)
Text: as §1

CC(C)NC(=O)c1cc(-c2cccs2)on1 [CR-1]
upregulation of CD24 (MDA-MB-231s): ~6 fold

C[C@H](NC(=O)Cc1cc(F)cc(F)c1)C(=O)N[C@H](C(=O)OC(C)(C)C)c1ccccc1 [DAPT]
inhibition of the CINP / tumor cell invasion (MDAs [1]): did not inhibit the CINP, but rather slightly promoted tumor cell invasion

O=C(O)CC[C@H]1CC[C@@](c2cc(F)ccc2F)(S(=O)(=O)c2ccc(Cl)cc2)CC1 [MK0752]
inhibition of the CINP / tumor cell invasion (MDAs [1]): did not inhibit the CINP, but rather slightly promoted tumor cell invasion

CN[C@H](CC(=O)O)C(=O)O [NMDA, N-Methyl-D-aspartate]
phenotypic effects (CSCs): no phenotypic effects

CC(/C=C/C(=O)NO)=C\[C@@H](C)C(=O)c1ccc(N(C)C)cc1 [TSA, reference compound]
acetylation of histones H3 and H4 (MDA-MB-231 cells): similarly induced H3/H4 acetylation

C[C@H](CCC(=O)O)C[C@H](C)C[C@H](C)C(=O)/C=C(\O)[C@H](C)C[C@H](C)C/C=C/[C@@H](C)[C@@H](O)[C@@H](C)[C@@H](O)C[C@@H]1CC[C@@](C)([C@H]2CC[C@@](C)([C@@H](C)O)O2)O1 [ionomycin, reference compound]
Ca2+ signal (MDAs [2]): observed
